In patent publication US20170196821A1, “Method of Inhibiting Mucin Secretion” (Reckitt Benckiser LLC, priority 2009, published 2017):
Entries after “also recorded” stand apart in the source; their conditions may differ.

Tests used:
MUC5AC mucins = test: MUC5AC mucin secretion and production by ELISA in EpiAirway (NHBE) cultures at air/liquid interface; type: cell-based, human
Procedure: EpiAirway cultures (normal human bronchial epithelial) cells grown on Millipore Transwells, 1 or 4.2 cm^2 surface area. The cells were purchased from MatTek, and were cultured at air-liquid interface for two (mucus synthesis and secretion) or three (mucociliary transport and mucus rheology) weeks prior to use. GUAIFENESIN solutions were prepared by dissolving in PBS (phosphate buffered saline) immediately before treatment of the cells. MUCSAC mucins were quantified by ELISA using 45M1 antibody (Labvision, Fremont, Calif.). Confluent 1 cm^2 NHBE cells grown on an air/liquid interface were washed from the apical surface with 200 μL PBS and incubated with fresh complete growth medium added to the basal chamber. Cultures were incubated 24 hours to collect the apical fluid (pretreatment sample or PT) by adding 100 μL PBS to the apical surface of the cultures. PBS was added to dilute the highly viscous, thin mucus layer on the surface. Because of the small size of the insert, it was not feasible to collect a sufficient amount of mucus for both pharmacology and rheology without the addition of PBS. After collecting 100 μL of the diluted mucus samples (PT), cultures were divided into three groups (6 hr, 24 hr and 48 hr), 16 inserts per group, and treated with varying concentrations of guaifenesin (0, 0.2, 2, 20 μg/mL) for each time group, 4 inserts per each dose. Thus, a total of 48 inserts were used for this study (4 inserts/dose×4 doses/time point×3 time points). The apical fluid was collected at 30 minutes following drug treatment from all the cultures to see whether guaifenesin affects the “secretion” of mucins. The apical mucus sample was collected in two steps—first by adding 100 μL PBS to the apical surface (1st wash) and then by adding 100 μL PBS containing 5 mM dithiothreitol (DTT) (2nd wash). Samples from each wash were assayed for MUC5AC content and the sum of the two values (the 1st and 2nd wash) was expressed as the “released MUC5AC” of the culture. At the three different time points (i.e., 6, 24, and 48 hr), cultures were washed to collect the apical fluid as described above (“released mucin”) and lysed using a lysis buffer (PBS, pH 7.2, […], 2 mM EDTA, 1 mM PSMF and 5 mM DTT) (“cellular mucin”). The amount of mucin in each sample (either secreted, released or cell lysate) was divided by the amount of mucin in the PT sample collected from the same well in order to obtain a “secretory index” to compensate for the variations among the cultures. The treatment protocol is depicted in FIG. 1. For mucin secretion, differences between control and guaifenesin treatment groups were assessed by comparing the means using Student's t-test for unpaired samples and p<0.05 was considered significant. All the values in the figures represent means ±SEM of 4 cultures unless otherwise stated. *p<0.05, **p<0.01

[1] = system: EpiAirway cultures (normal human bronchial epithelial) cells; test: Viability: metabolic activity by Water Soluble Tetrazolium (WST) assay; type: cell-based; settings: 1 or 6 hr treatment
Procedure: EpiAirway cultures (normal human bronchial epithelial) cells grown on Millipore Transwells, 1 or 4.2 cm^2 surface area. The cells were purchased from MatTek, and were cultured at air-liquid interface for two (mucus synthesis and secretion) or three (mucociliary transport and mucus rheology) weeks prior to use.
The apical surfaces of the cultures were then washed with PBS and the metabolic activity, an indicator of viability, was measured using the Water Soluble Tetrazolium (WST) assay (Boehringer).
Metabolic activity was assessed using the WST assay, separately added to the apical or basal surfaces of the cultures.

apical mucus secretions = test: Rheologic measurements of apical mucus secretions from EpiAirway cultures; type: cell-based, human
Procedure: EpiAirway cultures (normal human bronchial epithelial) cells grown on Millipore Transwells, 1 or 4.2 cm^2 surface area. The cells were purchased from MatTek, and were cultured at air-liquid interface for two (mucus synthesis and secretion) or three (mucociliary transport and mucus rheology) weeks prior to use. Following the analysis of clearance, mucus was harvested from the apical surface of the cultures, without dilution. The rheological properties of apical mucus secretions (20 μL) were measured using an AR1000 controlled stress rheometer (TA Instruments, New Castle, Del.) using a parallel plate geometry. The dynamic linear viscoelastic behavior was determined from the strain response to an oscillating stress and reported as a storage or elastic modulus (G′), and loss or viscous (G″) modulus, as a function of frequency ω such that viscosity, η′=G″/ω. Rheologic data can also be presented using vectorial notation as tangent δ which is the ratio of viscosity to elasticity and G*, the vector sum of viscosity and elasticity (mechanical impedance). When stress in the linear range is used to evaluate the materials, the material properties are independent of stress. In order to conduct a frequency sweep from 0.1 to 1000 rad/s, viscoelasticity was evaluated using a creep test at 0.5 Pa for 2 minutes. The strain response was fitted to a discrete relaxation spectrum, transformed to the retardation spectrum, and then to the storage and loss moduli, as a function of frequency, using methods developed by the PI. The linear viscoelasticity was evaluated at 1 and 100 rad/s and an oscillatory stress sweep and steady shear flow experiments were used to evaluate the behavior in the non-linear ranges. The oscillatory sweep data were analyzed by observing the stress where G′ and G″ crossed. […] All rheologic measurements were made by technicians who were blinded to the treatment group origin. For rheology experiments, data were analyzed using the StatView™ 5 statistics package. Raw data were visually confirmed to be normally distributed about the mean. […]

[2] = system: EpiAirway cultures (normal human bronchial epithelial) cells; test: Mucociliary clearance: rate of movement of endogenous cell debris on EpiAirway cultures; type: cell-based
Procedure: EpiAirway cultures (normal human bronchial epithelial) cells grown on Millipore Transwells, 1 or 4.2 cm^2 surface area. The cells were purchased from MatTek, and were cultured at air-liquid interface for two (mucus synthesis and secretion) or three (mucociliary transport and mucus rheology) weeks prior to use. For mucociliary clearance, a stock guaifenesin solution of 2 mg/mL in culture medium was prepared in the morning of each experiment and kept cold until dilution into warmed medium to the target concentrations of 0.2, 2, 20 or 200 μg/mL. The medium in the basolateral compartment of each culture was replaced with the GGE-containing medium, and the cultures were returned to the 37° C., 5% CO2 incubator for as the times indicated. The experiments were repeated three times on independent cultures. Cultures (4.2 cm^2) were exposed to basolateral guaifenesin for 1 or 6 hr. […] The rate of movement of endogenous cell debris was analyzed on the video images using a transparent template overlay on the video images and a stopwatch to measure at least 5 particles on each culture, for a total of between 30 and 45 measurements per condition. For mucociliary clearance, differences between control and guaifenesin treatment groups were assessed by comparing the means using ANOVA, with a Bonferroni post-test to assess differences from the controls tested at the same time after treatment. […]

[3] = 24 hour treatment, 2 μg/mL or 20 μg/mL

COc1ccccc1OCC(O)CO (centres unmarked) [guaifenesin, 3-(2-methoxyphenoxy)-1,2-propanediol]
secreted MUC5AC versus control (MUC5AC mucins; 30 min treatment, 0.2, 2, 20 μg/mL): no significant difference
total amounts of mucins produced (MUC5AC mucins; 6 hour treatment, 2 μg/ml and 20 μg/ml): significantly (p<0.01) suppressed; also recorded: suppressed the production of mucins
amounts of mucins released (MUC5AC mucins; 6 hours treatment, NHBE cells): did not affect
mucin production (MUC5AC mucins; [3]): significantly suppressed; also recorded: suppressed the production of mucins
mucin release (MUC5AC mucins; [3]): significantly suppressed; also recorded: significant (p<0.05) decrease in mucin release
amount of mucin released (MUC5AC mucins; 48 hours treatment): did not seem to be significantly affected
production of mucins (MUC5AC mucins; 48 hours treatment, 2 μg/mL and 20 μg/mL): significantly (p<0.01) suppressed; also recorded: suppressed the production of mucins
viability of the cells (WST assay) [1]: no adverse effect on the viability
metabolic activity (WST assay) ([1]; did not reach statistical significance): trend to increased metabolic activity
viscosity, elasticity and complex modulus (G*) of mucus (apical mucus secretions; 1 rad/s (ciliary frequency), 1 hour, p<0.05): dose-dependent decrease
viscosity, elasticity and complex modulus (G*) of mucus (apical mucus secretions; 1 rad/s (ciliary frequency), 6 hours, p<0.01): dose-dependent decrease
viscosity, elasticity and complex modulus (G*) of mucus (apical mucus secretions; 100 rad/s (corresponding to cough)): not significantly
mucociliary clearance (mobility of cellular debris on culture surface) ([2]; 1 hr treatment, only 2 μg/ml statistically significant, little dose-response): appeared to increase the mobility of the cellular debris
mucociliary clearance (movement of surface material) ([2]; 6 hr treatment, all three concentrations tested, strong trend to a dose response): significantly faster than the control
